The results in this text go back to US7723368B2, “Amino-5-[4-(difluoromethoxy)phenyl]-5-phenylimidazolone compounds for the inhibition of beta-secretase” (Wyeth LLC, priority 2007, dated 2010).

The experiment addresses human BACE1 (Homo sapiens, UniProt P56817). As to the kind of experiment: BACE1 fluorescent kinetic assay (cleavage of peptide substrate WABC-6). Type of experiment: biochemical. The settings on record: 10 nM enzyme, 25 μM substrate WABC-6, pH 4.5, room temperature. The procedure: Evaluation of BACE1 Binding Affinity of Test Compounds
Fluorescent Kinetic Assays
Dilution and mixing steps: total reaction volume: 100 μL
100 μM substrate dilution in 1×PBS was prepared, and
Fluorescence Readings: Readings at λex 320 nm and λem 420 nm are taken every 40 sec for 30 min at room temperature and the linear slope for substrate cleavage rate (vi) determined.

Sequence of human BACE1 (P56817 46-501): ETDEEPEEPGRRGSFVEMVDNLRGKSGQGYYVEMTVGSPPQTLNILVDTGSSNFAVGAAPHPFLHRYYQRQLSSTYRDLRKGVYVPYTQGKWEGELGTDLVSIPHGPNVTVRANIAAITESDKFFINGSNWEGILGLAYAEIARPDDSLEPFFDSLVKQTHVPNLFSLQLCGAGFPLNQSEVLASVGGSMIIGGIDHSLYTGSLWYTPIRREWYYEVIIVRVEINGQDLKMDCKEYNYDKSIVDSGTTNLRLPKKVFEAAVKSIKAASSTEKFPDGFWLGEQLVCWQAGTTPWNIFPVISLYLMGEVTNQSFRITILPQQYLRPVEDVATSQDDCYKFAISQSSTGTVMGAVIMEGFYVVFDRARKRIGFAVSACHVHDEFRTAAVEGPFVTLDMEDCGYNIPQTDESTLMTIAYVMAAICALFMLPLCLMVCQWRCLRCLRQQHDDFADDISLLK

By IC50 is commonly meant the concentration that gives 50% inhibition. A lower IC50 goes with inhibition by little substance. Take `COC/C=C(\C)c1cccc(C2(c3ccc(OC(F)F)cc3)N=C(N)N(C)C2=O)c1` (centres unmarked) [Example 71, (E)-2-amino-4-(4-(difluoromethoxy)phenyl)-4-(3-(4-methoxybut-2-en-2-yl)phenyl)-1-methyl-1H-imidazol-5(4H)-one]: the half-maximal inhibitory concentration (IC50) (Activity Table, Examples 1-108) lay in the range of 0.11 to 1 µM.
The compound `CN1C(=O)C(c2ccc(OC(F)F)cc2)(c2cccc(NCc3ccco3)c2)N=C1N` (centres unmarked) [Example 51] registered an IC50 (Activity Table, Examples 1-108) below 0.1 µM.
On the same count and under the same terms, the figure for `CN1C(=O)C(c2ccc(OC(F)F)cc2)(c2cccc(NC(=O)C(Cl)(Cl)Cl)c2)N=C1N` (centres unmarked) [Example 36] is below 0.1 µM; for `CCCC(=O)Nc1cccc(C2(c3ccc(OC(F)F)cc3)N=C(N)N(C)C2=O)c1` (centres unmarked) [Example 22] it is 0.11 to 1 µM; for `CCCCNc1cccc(C2(c3ccc(OC(F)F)cc3)N=C(N)N(C)C2=O)c1` (centres unmarked) [Example 44] it is below 0.1 µM.
On to `CC(C)Nc1cccc(C2(c3ccc(OC(F)F)cc3)N=C(N)N(C)C2=O)c1` (centres unmarked) [Example 46], for which the IC50 (Activity Table, Examples 1-108) fell in the range of 0.11 to 1 µM.
`C/C=C\c1cc([C@]2(c3ccc(OC(F)F)cc3)N=C(N)N(C)C2=O)ccc1F` [Example 76A, (5S)-2-amino-5-[4-(difluoromethoxy)phenyl]-5-{4-fluoro-3-[(1Z)-prop-1-en-1-yl]phenyl}-3-methyl-3,5-dihydro-4H-imidazol-4-one] returned an IC50 (Activity Table, Examples 1-108) above 1 µM.
The same measure, in the same setting: as for `CCNCc1cccc(C2(c3ccc(OC(F)F)cc3)N=C(N)N(C)C2=O)c1` (centres unmarked) [Example 63, 2-amino-5-[4-(difluoromethoxy)phenyl]-5-{3-[(ethylamino)methyl]phenyl}-3-methyl-3,5-dihydro-4H-imidazol-4-one], the figure is 0.11 to 1 µM; as for `CN1C(=O)C(c2ccc(OC(F)F)cc2)(c2cccc(Cc3ccco3)c2)N=C1N` (centres unmarked) [Example 88, 2-amino-4-(4-(difluoromethoxy)phenyl)-4-(3-(furan-2-ylmethyl)phenyl)-1-methyl-1H-imidazol-5(4H)-one], 0.11 to 1 µM.
On the same count and under the same terms, the figure for `CN1C(=O)C(c2ccc(OC(F)F)cc2)(c2cccc(CNCc3ccco3)c2)N=C1N` (centres unmarked) [Example 68, 2-amino-5-[4-(difluoromethoxy)phenyl]-5-(3-{[(2-furylmethyl)-amino]methyl}phenyl)-3-methyl-3,5-dihydro-4H-imidazol-4-one] is 0.11 to 1 µM.
Same read-out and setting: the figure for `CN1C(=O)C(c2ccc(OC(F)F)cc2)(c2cccc(O)c2)N=C1N` (centres unmarked) [Example 81, 2-Amino-5-[4-(difluoromethoxy)phenyl]-5-(3hydroxyphenyl)-3-methyl-3,5-dihydro-4H-imidazol-4-one] is 0.11 to 1 µM; for `C/C=C\c1cc(C2(c3ccc(OC(F)F)cc3)N=C(N)N(C)C2=O)ccc1F` (centres unmarked) [Example 75B, 2-amino-5-[4-(difluoromethoxy)phenyl]-5-{4-fluoro-3-[(1Z)-prop-1-en-1-yl]phenyl}-3-methyl-3,5-dihydro-4H-imidazol-4-one] it is 0.11 to 1 µM; for `CC(C)NCc1cccc(C2(c3ccc(OC(F)F)cc3)N=C(N)N(C)C2=O)c1` (centres unmarked) [Example 61, 2-Amino-5-(4-difluoromethoxy-phenyl)-5-[3-(isopropylamino-methyl)-phenyl]-3-methyl-3,5-dihydro-imidazol-4-one] it is 0.11 to 1 µM.
Consider `CC(C)=CC(=O)Nc1cccc(C2(c3ccc(OC(F)F)cc3)N=C(N)N(C)C2=O)c1` (centres unmarked) [Example 31], for which the IC50 (Activity Table, Examples 1-108) is above 1 µM.
Take `CCCNc1cccc(C2(c3ccc(OC(F)F)cc3)N=C(N)N(C)C2=O)c1` (centres unmarked) [Example 43]: where the note is “Activity Table, Examples 1-108”, the half-maximal inhibitory concentration (IC50) was below 0.1 µM.
In turn, `CCCCC(=O)Nc1cccc(C2(c3ccc(OC(F)F)cc3)N=C(N)N(C)C2=O)c1` (centres unmarked) [Example 23] showed an IC50 (Activity Table, Examples 1-108) of 0.11 to 1 µM.
On the same count and under the same terms, the figure for “methyl[3-(3-{2-amino-4-[4-(difluoromethoxy)phenyl]-1-methyl-5-oxo-4,5-dihydro-1H-imidazol-4-yl}phenyl)-1-methoxycyclobutyl]acetate-methyl[3-(3-{2-amino-4-[4-(difluoromethoxy)phenyl]-1-methyl-5-oxo-4,5-dihydro-1H-imidazol-4-yl}phenyl)cyclobutylidene]acetate (3:1) [Example 55]” is 0.11 to 1 µM; for `CN1C(=O)C(c2ccc(OC(F)F)cc2)(c2cccc(NC(=O)c3ccco3)c2)N=C1N` (centres unmarked) [Example 33] it is below 0.1 µM.
`CC=Cc1cc(C2(c3ccc(OC(F)F)cc3)N=C(N)N(C)C2=O)ccc1F` (centres unmarked) [Example 75A, 2-amino-5-[4-(difluoromethoxy)phenyl]-5-(4-fluoro-3-prop-1-en-1-ylphenyl)-3-methyl-3,5-dihydro-4H-imidazol-4-one] showed an IC50 (Activity Table, Examples 1-108) of 0.11 to 1 µM.
For the setting “Activity Table, Examples 1-108”, `C=CC[C@@H](C)Oc1cccc([C@@]2(c3ccc(OC(F)F)cc3)N=C(N)N(C)C2=O)c1` [Example 10D, (R)-2-amino-4-(4-(difluoromethoxy)phenyl)-1-methyl-4-(3-((R)-pent-4-en-2-yloxy)phenyl)-1H-imidazol-5(4H)-one] had a half-inhibitory concentration (IC50) below 0.1 µM.
As for `CCOC/C=C(\C)c1cccc(C2(c3ccc(OC(F)F)cc3)N=C(N)N(C)C2=O)c1` (centres unmarked) [Example 109, 2-amino-5-[4-(difluoromethoxy)phenyl]-5-{3-[(1E)-3-ethoxy-1-methylprop-1-en-1-yl]phenyl}-3-methyl-3,5-dihydro-4H-imidazol-4-one], the IC50 (Examples 109-141) is 0.11 to 1 µM.
On to `CN1C(=O)C(c2ccc(OC(F)F)cc2)(c2cccc(NC(=O)c3cccs3)c2)N=C1N` (centres unmarked) [Example 42], for which the IC50 (Activity Table, Examples 1-108) fell in the range of 0.11 to 1 µM.
Under “Examples 109-141”, `COCCC(C)c1cccc(C2(c3ccc(OC(F)F)cc3)N=C(N)N(C)C2=O)c1` (centres unmarked) [Example 111, 2-amino-5-[4-(difluoromethoxy)phenyl]-5-[3-(3-methoxy-1-methylpropyl)phenyl]-3-methyl-3,5-dihydro-4H-imidazol-4-one] came in with an IC50 above 1 µM.
In the case of `C/C=C/c1cc([C@]2(c3ccc(OC(F)F)cc3)N=C(N)N(C)C2=O)ccc1F` [Example 77A, (5S)-2-amino-5-[4-(difluoromethoxy)phenyl]-5-{4-fluoro-3-[(1E)-prop-1-en-1-yl]phenyl}-3-methyl-3,5-dihydro-4H-imidazol-4-one], for the setting “Activity Table, Examples 1-108”, the IC50 is above 1 µM.
`CN1C(=O)C(c2ccc(OC(F)F)cc2)(c2ccc(OC(F)F)cc2)N=C1N` [Example 67, 2-amino-5,5-bis[4-(difluoromethoxy)phenyl]-3-methyl-3,5-dihydro-4H-imidazol-4-one] registered a half-inhibitory concentration (IC50) (Activity Table, Examples 1-108) above 1 µM.
`CN1C(=O)C(c2ccc(OC(F)F)cc2)(c2cccc(NC(=O)c3ccc4c(c3)CCO4)c2)N=C1N` (centres unmarked) [Example 117, N-(3-{2-amino-4-[4-(difluoromethoxy)phenyl]-1-methyl-5-oxo-4,5-dihydro-1H-imidazol-4-yl}phenyl)-2,3-dihydro-1-benzofuran-5-carboxamide]: the IC50 (Examples 109-141) is below 0.1 µM.
In the case of `CN1C(=O)C(c2ccc(OC(F)F)cc2)(c2cccc(C3CC3)c2)N=C1N` (centres unmarked) [Example 70, 2-amino-4-(3-cyclopropylphenyl)-4-(4-(difluoromethoxy)phenyl)-1-methyl-1H-imidazol-5(4H)-one], the IC50 (Activity Table, Examples 1-108) was above 1 µM.
Compound `CN1C(=O)C(c2ccc(OC(F)F)cc2)(c2cccc(NC(=O)C3CC3)c2)N=C1N` (centres unmarked) [Example 28] came in with an IC50 (Activity Table, Examples 1-108) of 0.11 to 1 µM.
Consider `CN1C(=O)C(c2ccc(OC(F)F)cc2)(c2cccc(C3CC(=CCO)C3)c2)N=C1N` (centres unmarked) [Example 56, 2-amino-5-[4-(difluoromethoxy)phenyl]-5-{3-[3-(2-hydroxyethylidene)cyclobutyl]phenyl}-3-methyl-3,5-dihydro-4H-imidazol-4-one], for which the IC50 (Activity Table, Examples 1-108) is above 1 µM.
The compound `CN1C(=O)[C@@](c2ccc(OC(F)F)cc2)(c2ccc(F)c(C#CCF)c2)N=C1N` [Example 107, (5R)-2-amino-5-[4-(difluoromethoxy)phenyl]-5-[4-fluoro-3-(3-fluoroprop-1-yn-1-yl)phenyl]-3-methyl-3,5-dihydro-4H-imidazol-4-one] gave an IC50 (Activity Table, Examples 1-108) below 0.1 µM.
Consider `CC(C)CNc1cccc(C2(c3ccc(OC(F)F)cc3)N=C(N)N(C)C2=O)c1` (centres unmarked) [Example 45], for which the IC50 (Activity Table, Examples 1-108) is below 0.1 µM.
On to `CN1C(=O)C(c2ccc(OC(F)F)cc2)(c2cccc(Nc3ccccc3)c2)N=C1N` (centres unmarked) [Example 60, 2-amino-5-(3-anilinophenyl)-5-[4-(difluoromethoxy)phenyl]-3-methyl-3,5-dihydro-4H-imidazol-4-one], for which the 50% inhibitory concentration (IC50) (Activity Table, Examples 1-108) was in the range of 0.11 to 1 µM.
On the same count and under the same terms, as for `C=CC[C@H](C)Oc1cccc([C@@]2(c3ccc(OC(F)F)cc3)N=C(N)N(C)C2=O)c1` [Example 10E, (R)-2-amino-4-(4-(difluoromethoxy)phenyl)-1-methyl-4-(3-((S)-pent-4-en-2-yloxy)phenyl)-1H-imidazol-5(4H)-one], the figure is 0.11 to 1 µM; as for `CN1C(=O)[C@](c2ccc(OC(F)F)cc2)(c2cccc(CCCCC#N)c2)N=C1N` [Example 11B, 5-(3-{(4S)-2-amino-4-[4-(difluoromethoxy)phenyl]-1-methyl-5-oxo-4,5-dihydro-1H-imidazol-4-yl}phenyl)pentanenitrile], above 1 µM; as for `CN1C(=O)C(c2ccc(OC(F)F)cc2)(c2ccc(F)c(C#CCF)c2)N=C1N` (centres unmarked) [Example 99, 2-amino-5-[4-(difluoromethoxy)phenyl]-5-[4-fluoro-3-(3-fluoroprop-1-yn-1-yl)phenyl]-3-methyl-3,5-dihydro-4H-imidazol-4-one], below 0.1 µM.
As for `Cc1cc2cc(C3(c4ccc(OC(F)F)cc4)N=C(N)N(C)C3=O)ccc2o1` (centres unmarked) [Example 113, 2-amino-5-[4-(difluoromethoxy)phenyl]-3-methyl-5-(2-methyl-1-benzofuran-5-yl)-3,5-dihydro-4H-imidazol-4-one], for the setting “Examples 109-141”, the IC50 is above 1 µM.
As for `CN1C(=O)[C@@](c2ccc(OC(F)F)cc2)(c2ccc(F)c(C#CCCF)c2)N=C1N` [Example 104, (5R)-2-amino-5-[4-(difluoromethoxy)phenyl]-5-[4-fluoro-3-(4-fluorobut-1-yn-1-yl)phenyl]-3-methyl-3,5-dihydro-4H-imidazol-4-one], the IC50 (Activity Table, Examples 1-108) is below 0.1 µM.
For the setting “Activity Table, Examples 1-108”, `Cc1cccc(C2(c3ccc(OC(F)F)cc3)N=C(N)N(C)C2=O)c1` (centres unmarked) [Example 95, 2-Amino-5-[4-(difluoromethoxy)phenyl]-3-methyl-5-(3-methylphenyl)-3,5-dihydro-4H-imidazol-4-one] returned an IC50 of 0.11 to 1 µM.
